In patent publication US20260035367A1 (Celgene Corporation, priority 2021, published 2026):
Like-named read-outs stand apart in the source and are kept apart here.

Legend:
[1] = system: IL-2 secretion by human effector memory T cells (TEM); assay: Effector memory T cells IL-2 release assay (CD3/CD28 stimulation, HTRF IL-2 detection); assay type: cell-based; details: Homo sapiens, T-cell, 24 h
Procedure: Test compound-mediated inhibition of NFκB signalling in T cells was assessed by quantification of the IL-2 secretion by human effector memory T cells (TEM) upon treatment and stimulation. Human TEM cells were isolated from buffy coats of healthy donors obtained from the French blood bank.
Finally, 10 doses of test compound, originally prepared in DMSO by serial semi-log step dilution, were also added to cells in triplicate wells. Final DMSO concentration in wells was 0.1% in a total volume of 100 μL complete medium. Plates were incubated for 24 h at 37° C. in 5% CO2 atmosphere. After incubation, cell suspensions were centrifuged at 400×g and culture supernatants were recovered and stored at −80° C. […] IL-2 levels were determined in cell supernatants using an HTRF human IL-2 detection kit (Cisbio, cat #62HIL02PEH).

[2] = target: T1, Recombinant human PKC-delta (His-tagged 345-676) (Homo sapiens, UniProt Q05655); assay: PKC-delta inhibition assay (HTRF KinEASE kit); assay type: biochemical; details: ratio, PKC-theta vs PKC-delta HTRF; for PKC-theta/PKC-delta selectivity (binned): binned A to G
T1 construct: PKC-delta (His-tagged 345-676); His
T1 sequence (Q05655 345-676): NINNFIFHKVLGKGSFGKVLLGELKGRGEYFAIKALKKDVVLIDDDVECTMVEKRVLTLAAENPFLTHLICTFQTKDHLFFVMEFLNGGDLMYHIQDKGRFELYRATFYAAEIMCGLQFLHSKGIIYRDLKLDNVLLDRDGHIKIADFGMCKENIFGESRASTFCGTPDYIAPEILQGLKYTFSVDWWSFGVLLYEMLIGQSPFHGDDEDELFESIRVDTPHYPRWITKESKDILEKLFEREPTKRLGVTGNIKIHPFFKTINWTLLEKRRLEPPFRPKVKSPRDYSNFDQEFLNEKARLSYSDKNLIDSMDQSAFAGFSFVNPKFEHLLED

[3] = target: T2, Recombinant human PKC-theta (His-tagged 362-706) (Homo sapiens, UniProt Q04759); assay: PKC-theta inhibition assay (HTRF KinEASE kit); assay type: biochemical; details: ATP 6.5 μM, STK substrate 525 nM
T2 construct: Recombinant human PKC-theta (His-tagged 362-706); His
T2 sequence (Q04759 362-706): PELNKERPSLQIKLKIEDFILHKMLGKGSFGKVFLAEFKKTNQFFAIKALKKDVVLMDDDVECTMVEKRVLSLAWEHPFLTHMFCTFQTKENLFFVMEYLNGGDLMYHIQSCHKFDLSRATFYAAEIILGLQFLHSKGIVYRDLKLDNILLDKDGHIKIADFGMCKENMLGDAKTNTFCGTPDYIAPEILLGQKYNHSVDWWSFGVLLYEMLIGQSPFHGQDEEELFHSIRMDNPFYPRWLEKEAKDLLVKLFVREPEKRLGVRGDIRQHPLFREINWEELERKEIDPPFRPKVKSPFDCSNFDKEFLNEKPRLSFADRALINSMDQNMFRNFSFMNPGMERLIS
Procedure: PKC-theta and PKC-delta biochemical activities were measured using the PKC-theta HTRF KinEASEkit kit, according to manufacturer's instructions (Cisbio, catalogue number 61ST1PEJ). Briefly, the kinase buffer component of the kit was supplemented with 10 mM MgCl2, 1 mM DTT and 0.1% Tween 20. […] The streptavidin_XL665 and STK antibody-cryptate detection reagents were mixed according to the manufacturer's instructions. Test compounds were diluted in DMSO in a series of 10 semi-log step doses; 10 nL of each compound dose were dispensed in 384 well plates. […] The reaction was started by addition of the substrate and ATP and incubated at 25° C. for 30 minutes or 20 minutes for the PKC-theta and PKC-delta assays, respectively. The detection reagents were added, and the plate was incubated in the dark for 2 hours. […] The ratio of acceptor and donor emission signals was calculated for each well. Percent inhibition values were calculated from the HTRF ratios at different doses and fitted to a 4-parameter logistic curve to determine IC50 values (see Table 2).

[4] = binned A to G, read-out: PKC-theta IL2 pIC50 (binned) (converted)
[5] = read-out: PKC-theta IL2 pIC50 (converted)
[6] = binned A to H, read-out: PKC-theta HTRF pIC50 (binned) (converted)
[7] = read-out: PKC-theta HTRF pIC50 (converted)

Row | SMILES | IC50 [1, 4] [nM] | IC50 [1, 5] [nM] | PKC-theta/PKC-delta selectivity [2] | PKC-theta/PKC-delta selectivity (binned) [2] | IC50 [3, 6] [nM] | IC50 [3, 7] [nM]
1 | CC1(C)C(=O)Nc2nccc(-c3cc(Cl)cc(N4CCNCC4)n3)c21 [Example 65] | 100 to 316 | 200 | 14 | D (a ratio of between 10 and 20) | 1 to 3.16 | 2
2 | CN1CCN(c2cc(C(F)(F)F)cc(-c3ccnc4c3C(C)(C)C(=O)N4)n2)CC1 [Example 99] | 316 to 1000 | 794 | 22 | C (a ratio of between 20 and 30) | 10 to 31.6 | 31.6
3 | CO[C@]1(C)C(=O)Nc2nccc(-c3cc(C(F)(F)F)cc(N4CCNC[C@H]4C)n3)c21 (single isomer, unassigned) [Example 158] | 100 to 316 | 200 | 10 | E (a ratio of between 5 and 10) | 3.16 to 10 | 6.31
4 | C[C@H]1CN(c2cc(C(F)(F)F)cc(-c3ccnc4c3C(C)(C)C(=O)N4)n2)CCCN1 [Example 185] | 31.6 to 100 | 39.8 | 27 | C (a ratio of between 20 and 30) | 3.16 to 10 | 5.01
5 | CC1(C)C(=O)Nc2nccc(-c3cccc(OC4CCNCC4)c3)c21 [Example 47] | > 1000 | 2510 | 2 | F (a ratio of between 1 and 5) | 100 to 316 | 316
6 | CC[C@]1(C)C(=O)Nc2nccc(-c3cc(Cl)cc(N4CCN[C@@H](C)C4)n3)c21 (single isomer, unassigned) [Example 171] | 31.6 to 100 | 39.8 | 9 | E (a ratio of between 5 and 10) | 1 to 3.16 | 2.51
7 | C[C@H]1CN(c2cc(Cl)cc(-c3ccnc4c3[C@](C)(O)C(=O)N4)n2)CCN1 (single isomer, unassigned) [Example 110] | 10 to 31.6 | 25.1 | 16 | D (a ratio of between 10 and 20) | 0.316 to 1 | 1
8 | CC[C@H]1CN(c2cc(C(F)(F)F)cc(-c3ccnc4c3[C@](C)(O)C(=O)N4)n2)CCN1 (single isomer, unassigned) [Example 90] | 10 to 31.6 | 15.8 | 17 | D (a ratio of between 10 and 20) | 0.316 to 1 | 0.794
9 | CCC1(C)C(=O)Nc2ncc(F)c(-c3cc(C(F)(F)F)cc(N4CCNC[C@H]4C)n3)c21 (stereo partly drawn) [Example 157] | 100 to 316 | 158 | 20 | C (a ratio of between 20 and 30) | 3.16 to 10 | 7.94
10 | CC1(C)C(=O)Nc2nccc(-c3cc(C(F)(F)F)cc(N4CC5CCC4CN5)n3)c21 (stereo not drawn) [Example 137] | 100 to 316 | 251 | 16 | D (a ratio of between 10 and 20) | 10 to 31.6 | 12.6
11 | C[C@@H]1CNCCN1c1cc(C(F)(F)F)cc(-c2c(F)cnc3c2C(C)(C)C(=O)N3)n1 [Example 156] | 100 to 316 | 126 | 12 | D (a ratio of between 10 and 20) | 10 to 31.6 | 12.6
12 | CC1(C)C(=O)Nc2nccc(-c3cc(C(F)(F)F)cc(N4CC5CC4CN5)n3)c21 (stereo not drawn) [Example 85] | 316 to 1000 | 316 | 20 | D (a ratio of between 10 and 20) | 10 to 31.6 | 20
13 | C[C@@H]1CN(c2cc(Cl)cc(-c3ccnc4c3[C@](C)(O)C(=O)N4)n2)CCN1 (single isomer, unassigned) [Example 89] | 31.6 to 100 | 63.1 | 17 | D (a ratio of between 10 and 20) | 1 to 3.16 | 3.16
